Measurements reported in the NIST ThermoML archive (doi:10.1016/j.jct.2010.12.028).
Numbers after ± are expanded uncertainties.

Conditions: 298.15 K, 101.33 kPa, Liquid; for speed of sound: Sing-around technique in a fixed-path interferometer; for mass density: Vibrating tube method

SMILES: Cc1ccncc1 [4-methylpyridine]
- speed of sound: 1431.5 ± 2.3 m/s
- mass density: 950.179 ± 0.24 kg/m3

SMILES: Cc1cccnc1 [3-methylpyridine]
- speed of sound: 1424 ± 2.3 m/s
- mass density: 952.002 ± 0.24 kg/m3

SMILES: c1ccncc1 [pyridine]
- speed of sound: 1417.8 ± 2.3 m/s
- mass density: 978.249 ± 0.24 kg/m3

SMILES: Cc1ccccc1N [2-methylaniline]
- speed of sound: 1602.6 ± 2.4 m/s
- mass density: 994.351 ± 0.24 kg/m3

SMILES: Cc1ccccn1 [2-methylpyridine]
- speed of sound: 1380.1 ± 2.9 m/s
- mass density: 939.802 ± 0.77 kg/m3
